Bridges are numbered along the chain shown (N, C = ends). FAM = fluorescein-amide / fluoresceinamine label

In assay [1] the test system is hAPP-J20 mouse brain (hippocampus). Particulars: i.v., 30 min circulation, 9-month-old AD (hAPP-J20) vs normal/WT mice.
Experimental: The synthetic peptides were labeled with FAM and 100 nmol and were intravenously injected to 9-month old AD mice through the tail vein. The peptides were allowed to circulate for 30 min, after which the mice were perfused with 20 ml of PBS, the brains were collected and snap-frozen in OCT for sectioning. The peptides were detected by anti-FAM staining (green), nuclei were stained with DAPI (blue), and anti-CD31 was used to visualize blood vessels.
For peptide homing, mice were intravenously injected with 50 nmole peptide dissolved in PBS, and allowed to circulate for 30 min. Mice were then perfused intracardially with saline and all major organs were isolated and fixed in 4% paraformaldehyde (PFA) at pH 7.4 overnight. The organs were then washed with PBS and placed in graded sucrose solutions overnight before optimal cutting temperature compound (OCT) embedding. Ten-micro-meter-thick sections were cut and analyzed by immunostaining.
Frozen sections were permeabilized using PBS- 0.2% Triton™ X-100 (PBST), blocking was carried out using blocking buffer (5% BSA, 1% goat serum, 1% donkey serum in PBST. Primary antibodies were incubated in diluted (1%) blocking buffer overnight at dilutions 1/100 or 1/200 at 4° C., washed with PBST and incubated with secondary antibodies diluted 1/200 or 1/500 in 1% diluted buffer for 1 hour at room temperature, subsequently washed with PBST, counterstained with DAPI 1 μg/mL in PBS for 5 minutes, washed with PBS, mounted using aqueous mounting media (Vector Biolabs), and imaged using a confocal microscope (Zeiss LSM-710).
The test system of assay [2] is hippocampus of hAPP-J20 AD and wild-type mice. The experiment in a line: In vivo CX7C T7 phage library screen, sequencing of phage recovered from hippocampus. More on the design: species or system mouse. The settings on record: for Frequency/%: hippocampus 30 min after i.v. phage library, high throughput sequencing of inserts; for Representation in sequenced phage pools, AD versus normal brain: 9-month AD mouse vs normal mouse hippocampus. The method, then: In vivo phage screening was conducted using a T7 phage library expressing random peptides with the composition of CXnC (C=cysteine; X=any amino acid; n=7). The mouse model used for this screening is the hAPP-J20 that expresses amyloid precursor protein (APP) with both the Swedish and Indiana mutations (Murrell et al., Science 254, 97-99. (1991); Mullan et al., Nat. Genet. 1, 345-347. (1992)). Peptides homing to the hippocampus of these mice was the focus because the hippocampal region is where the AB-related lesions and damage are most prevalent early on in the disease.
A CX7C phage library was intravenously injected into 9 month-old AD and wild-type (WT) littermate mice, and allowed to circulate for 30 min, after which mice were perfused with saline, brains were collected, and the hippocampal region was dissected and subjected to phage titration and high throughput sequencing of the phage inserts. A surprise result was that the number of phage recovered from the AD hippocampus samples was much higher than the number recovered from a similar screen on normal littermates of the AD mice (FIG. 1A). […] BBB leakage has also been reported in AD patients.
Parallel phage library screens were performed on a normal mouse and a 9-month old AD transgenic mouse (J20 hAPP tg mouse line, which expresses transgenic amyloid precursor protein with two disease-related mutations). The library was intravenously injected into anesthetized mice and the hippocampal area of the brain was collected 30 min after intravenous injection of the library, phage was isolated from the tissue samples and subjected to high throughput sequencing of the peptide-encoding inserts in the phage DNA. Table 1 list most abundantly represented peptide from the two kinds of brains, and all peptides with significant representation in the AD brain and absent or nearly absent in the normal brain are listed in Table 2. Two peptides, CASPRLSKC (SEQ ID NO: 3) and CESPLLSEC (SEQ ID NO: 11), from among the highest scoring ones were subjected to detailed studies as described below.
hAPP-J20 mice were intravenously injected with 1e10 pfu of a CX7C (wherein X is any amino acid) naïve phage library, in 100 μL of PBS. The library was allowed to circulate for 30 minutes, after which mice were anesthetized with 2.5% avertin and perfused with PBS intracardially. The brain was removed and the hippocampus was extracted and homogenized in LB-NP 40 (1%) and phage was processed as described (Teesalu et al., Methods Enzymol 503, 35-56 (2012)). The phages in the lysate were rescued by amplification in E. coli and peptide-encoding portion of the phage genome was sequenced using Ion Torrent high throughput sequencing.

The subject of a further assay is AD hippocampus. The experiment in a line: Homing of intravenously injected individual peptide-displaying phages. It is filed as in vivo, mouse. Particulars: intravenously injected phage displaying the peptide. The source says: FIG. 1B relates to phage titration showing that about 5 times more phage were recovered from the AD hippocampus than from the normal control. In the sequencing, phages displaying the peptides code named CASP (SEQ ID NO: 3; CASPRLSKC), CES (SEQ ID NO: 11, CESPLLSEC), and DAG (SEQ ID NO: 102, CDAGRKQKC) dominated. Hippocampus from age-matched normal wild-type mouse brain was used as a control.

The next assay addresses T1, recombinant human CTGF (Homo sapiens, UniProt P29279).
T1 construct: purchased Affymetrix 14-8503-80
T1 sequence (P29279 253-349 limits assumed): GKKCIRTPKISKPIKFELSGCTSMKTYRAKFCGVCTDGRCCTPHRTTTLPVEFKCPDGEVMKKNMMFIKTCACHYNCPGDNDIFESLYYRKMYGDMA
The experiment in a line: ELISA binding to recombinant CTGF. The settings on record: non-labeled DAG 0.5 mM. The method, then: FIG. 10 is a graphical representation relating to identification of a receptor for DAG. DAG binds to recombinant CTGF. FAM-DAG was incubated on ELISA plate coated with recombinant human CTGF at two different peptide concentrations of the FAM peptide alone (light gray bars), or in the presence of non-labeled DAG (0.5 mM) (dark gray bars). […] DAG was also shown to colocalize with CTGF. FAM-DAG was intravenously injected in 9-month-old hAPP-J20 and WT mice, allowed to circulate for 30 minutes, after which mice were perfused, and the brains were fixed, sectioned and stained for FAM (green) and CTGF (red).
Human CTGF recombinant protein (Affymetrix Cat #14-8503-80) was incubated on Nunc low-binding plates at concentration of 10 μg/ml for overnight at 4° C. Excess protein in the plates was removed by washing with PBS-T (PBS with 0.005% Tween 20). Plates were blocked with 200 μl of 3% non-fat milk in PBS for 1 hour at room temperature and washed with PBS-T once. Biotin-labeled peptide (at different concentrations) in PBS was added to the plate for 2 hours at 37° C. For peptide inhibition, non-labeled DAG peptide (0.5 mM) was added 30 minutes prior to addition of labeled peptide. The plates were washed with 100 μl PBS-T for three times to remove excess peptide. The bound peptide was detected by incubating with 100 μl of Vectastain ABC™ reagent (Vector labs, Burlingame, Calif.) for 30 minutes. The plate was washed with 100 μl PBS-T three times. Next, 100 μl of o-phenylenediamine dihydrochloride (OPD) silver and gold substrate (Sigma-Aldrich) was added to the wells and incubated at room temperature until visible color was observed (˜30 min). Adding 50 μl of 1 M H2SO4 stopped the reaction and the plate was read at 495 nm (FlexStation™ 3 Reader, Molecular Devices, Sunnyvale, Calif., USA).

[3] abbreviates: Alzheimer's mouse (9-month old J20 hAPP tg).

Consider “FAM-CESPLLSEC: fluorescein-amide (FAM)-labeled CESPLLSEC peptide ({FAM}-CESPLLSEC-NH2; cysteine pairing not given here)”, for which the “Homing of FAM-labeled peptide to hippocampus” value (from here on “Homing of FAM-labeled peptide”) in assay [1] is given as “homed to AD, but not normal, hippocampus”.

Substance CNSKETSRC [SEQ ID NO: 5] yielded a Frequency/% in assay [2] (setting [3]) of 0.3885%.

For CESPLLSEC [SEQ ID NO: 11], in assay [2], the “Representation in sequenced phage pools, AD versus normal brain” value is listed as “dominated”. The Frequency/% in assay [2] (setting [3]) came to 0.316%. Moreover, in the assay with AD hippocampus, the “Phage accumulation in normal brain” value is reported as “no accumulation in normal brain” and the “Phage homing to AD hippocampus” value is “home to AD hippocampus with high specificity”. Also, in assay [1], the “Homing of FAM-labeled peptide” value was “homed to the dentate gyms of AD brain but not normal brain”.

In assay [2] (setting [3]), CEQVRQKRC [SEQ ID NO: 4] yielded a Frequency/% of 0.3956%.

Take CADDGC [SEQ ID NO: 94]: the Frequency/% in assay [2] (Wild-type mouse) came to 1.244%.

SSVDKL [SEQ ID NO: 9] had a Frequency/% in assay [2] (setting [3]) of 0.3223%.

Turning to CSPE [SEQ ID NO: 6], in assay [2] (setting [3]), the Frequency/% is recorded as 0.3766%.

CSGKAQRGC [SEQ ID NO: 100] registered a Frequency/% in assay [2] (setting [3]) of 0.3349%.

Take “FAM-CASPRLSKC: fluorescein-amide (FAM)-labeled CASPRLSKC peptide ({FAM}-CASPRLSKC-NH2; cysteine pairing not given here)”: the “Homing of FAM-labeled peptide” value in assay [1] is “homed to AD, but not normal, hippocampus”.

For the substance CSGDMETKC [SEQ ID NO: 89], the Frequency/% in assay [2] (Wild-type mouse) came to 1.846%.

With CLTDNEETC [SEQ ID NO: 7], in assay [2] (setting [3]), the Frequency/% is listed as 0.3341%.

In the case of CLSLD [SEQ ID NO: 88], the Frequency/% in assay [2] (Wild-type mouse) turned out to be 2.286%.

In turn, CSDRRLIDC [SEQ ID NO: 90] came in with a Frequency/% in assay [2] (Wild-type mouse) of 1.737%.

For the substance CTREGNETC [SEQ ID NO: 96], in assay [2] (Wild-type mouse), the Frequency/% came to 1.098%.

Turning to CKVRKSEGC [SEQ ID NO: 85], the Frequency/% in assay [2] (Wild-type mouse) is given as 3.559%.

CRTPLNPRC [SEQ ID NO: 95] showed a Frequency/% in assay [2] (Wild-type mouse) of 1.171%.

CRKQGEAKC [reference compound]: the “Homing of FAM-labeled peptide” value in assay [1] is “essentially no homing to the hippocampus of hAPP-J20 mice”.

In assay [2] (Wild-type mouse), CATPRDKRTC [SEQ ID NO: 87] gave a Frequency/% of 2.373%.

In turn, CVPKGKLVC [SEQ ID NO: 84] yielded a Frequency/% in assay [2] (Wild-type mouse) of 4.678%.

CVPKGKLVLLSL [SEQ ID NO: 86]: in assay [2] (Wild-type mouse), the Frequency/% was found to be 2.377%.

In assay [2] (setting [3]), CTKTAK [SEQ ID NO: 10] came in with a Frequency/% of 0.3191%.

For CSTNA [SEQ ID NO: 93], in assay [2] (Wild-type mouse), the Frequency/% is recorded as 1.426%.

In the case of CELSQ [SEQ ID NO: 97], the Frequency/% in assay [2] (Wild-type mouse) was 1.089%.

With CARVKK [SEQ ID NO: 91], in assay [2] (Wild-type mouse), the Frequency/% worked out at 1.67%.

As for “FAM-DAG: Fluoresceinamine (FAM)-labeled synthetic DAG peptide ({FAM}-CDAGRKQKC-NH2; disulfide 1-9 (inferred); not fully specified)”, the “Homing of FAM-labeled peptide” value in assay [1] was “specifically homed AD hippocampus”. For the same substance, the “Inhibition of CTGF binding by unlabeled DAG” value with recombinant human CTGF was “Non-labeled DAG inhibited the binding of FAM-DAG”.

For CASPRLSKC [SEQ ID NO: 3], in assay [2], the “Representation in sequenced phage pools, AD versus normal brain” value is reported as “dominated”. In addition, the Frequency/% in assay [2] (setting [3]) came out at 0.7226%. In the assay with AD hippocampus, the “Phage accumulation in normal brain” value is “no accumulation in normal brain” and the “Phage homing to AD hippocampus” value is given as “home to AD hippocampus with high specificity”. The “Homing of FAM-labeled peptide” value in assay [1] is given as “homed to the dentate gyms of AD brain but not normal brain”.

Regarding CTVNGKRSC [SEQ ID NO: 99], the Frequency/% in assay [2] (Wild-type mouse) is 0.9707%.

For the substance CRKQPTNVC [SEQ ID NO: 92], the Frequency/% in assay [2] (Wild-type mouse) came out at 1.495%.

In turn, CSKTTE [SEQ ID NO: 2] gave a Frequency/% in assay [2] (setting [3]) of 0.8549%.

CSRTSKQAC [SEQ ID NO: 98] yielded a Frequency/% in assay [2] (Wild-type mouse) of 1.022%.

Values taken from patent US11571485B2, “Peptides and antibodies for detecting changes in alzheimer's disease brain and methods of use thereof” (Sanford Burnham Prebys Medical Discovery Institute, priority 2016, dated 2023).
